# Reference: patent US20250295113A1, “COMPOSITION AND METHOD FOR CONTROLLING WEEDS” (priority 2022, published 2025)
# Assays:
# Torpedograss = experiment: Example 3: Torpedograss control trial; type: in vivo, Torpedograss (Panicum repens); conditions: quinclorac 573 g ai/ha with and without metcamifen 75 g ai/ha; two applications, 21-day interval
# Source text: (§1) Two applications were made on a 21-day interval.
# blanket crabgrass = experiment: Example 4: blanket crabgrass control trial in Floratam St Augustinegrass; type: in vivo, blanket crabgrass (Digitaria serotina); conditions: quinclorac 573 g ai/ha; two applications, 21-day interval
# Source text: as §1
# [1] = tested on: St Augustinegrass variety 'Floratam'; experiment: Example 1: Floratam St Augustinegrass phytotoxicity trial; conditions: quinclorac alone, both formulations, 573 g ai/ha, two applications on 21-day interval
smiles,measurement,setting,value
"O=C(O)c1c(Cl)ccc2cc(Cl)cnc12 [Quinclorac, 3,7-dichloro-8-quinolinecarboxylic acid]",Torpedograss control / efficacy (in words),Torpedograss,provided control of Torpedograss
same,blanket crabgrass control (in words),blanket crabgrass,"excellent, significant control"
same,injury to Floratam St Augustinegrass (in words),[1],significant injury
